# Source: patent publication US20250340557A1, “PYRIMIDINE DERIVATIVE” (ASKA PHARMACEUTICAL CO., LTD., priority 2022, published 2025)
# Target: T1, human mPGES-1 (Homo sapiens, UniProt O14684)
# T1 construct: made in house; host or cells: COS-1 cells (transient transfection; microsomal fraction used as enzyme)
# T1 sequence (O14684 1-152): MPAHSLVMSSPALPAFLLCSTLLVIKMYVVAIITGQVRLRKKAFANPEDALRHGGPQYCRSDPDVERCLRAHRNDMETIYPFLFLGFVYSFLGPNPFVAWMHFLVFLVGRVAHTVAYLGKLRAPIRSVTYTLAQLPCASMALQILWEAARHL
# Test: Test for mPGES-1 inhibitory activity (microsomal enzyme, PGE2 EIA)
# Format: biochemical
# Conditions: microsomes from COS-1 cells transfected with human mPGES-1 cDNA; substrate PGH2 1 μM; 4° C., 4 minutes; PGE2 measured by EIA; read-out: h mPGES1 IC50
# Summary of the method: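 IC50 values were derived from EIA-quantified PGE2 after a 4 min, 4 °C reaction with PGH2 at 1 μM final, stopped with ferric chloride/citric acid. Beforehand, compound (2% DMSO final) sat 15 min at 4 °C with human mPGES-1 microsomes from transiently transfected COS-1 cells. Buffer was sodium phosphate pH 7.2 containing 2.5 mM reduced glutathione and 1 mM EDTA.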
row,IC50,SMILES
1,< 10 nM,"Cc1cccc2ccc(N3CC(C(=O)NCc4ccc(C(F)(F)F)c(-c5nc(C(F)(F)F)cc(=O)[nH]5)c4F)C3)nc12 [Example 6, N-{2-fluoro-3-[6-oxo-4-(trifluoromethyl)-1,6-dihydropyrimidin-2-yl]-4-(trifluoromethyl)benzyl}-1-(8-methylquinolin-2-yl)azetidine-3-carboxamide]"
2,< 1 nM,"O=C(NCc1ccc(C(F)(F)F)c(-c2nc(C(F)(F)F)cc(=O)[nH]2)c1F)C1CCN(c2cccc(C(F)F)c2)CC1 [Example 65, 1-[3-(difluoromethyl)phenyl]-N-{2-fluoro-3-[6-oxo-4-(trifluoromethyl)-1,6-dihydropyrimidin-2-yl]-4-(trifluoromethyl)benzyl}piperidine-4-carboxamide]"
3,14 nM,"Cc1nc(-c2c(C(F)(F)F)ccc(CNC(=O)C3CCN(c4ccc(C(F)(F)F)cn4)CC3)c2F)[nH]c(=O)c1F [Example 33, N-[2-fluoro-3-(5-fluoro-4-methyl-6-oxo-1,6-dihydropyrimidin-2-yl)-4-(trifluoromethyl)benzyl]-1-[5-(trifluoromethyl)pyridin-2-yl]piperidine-4-carboxamide]"
4,< 1 nM,"Cc1cccc2ccc(N3CCC(C(=O)NCc4ccc(C(F)(F)F)c(-c5nc(C(C)C)cc(=O)[nH]5)c4F)CC3)nc12 [Example 11, N-[2-fluoro-3-(4-isopropyl-6-oxo-1,6-dihydropyrimidin-2-yl)-4-(trifluoromethyl)benzyl]-1-(8-methylquinolin-2-yl)piperidine-4-carboxamide]"
5,< 1 nM,"O=C(NCc1ccc(Cl)c(-c2nc(C(F)(F)F)cc(=O)[nH]2)c1F)C1CCN(c2ccc(C(F)(F)F)cn2)CC1 [Example 32, N-{4-chloro-2-fluoro-3-[6-oxo-4-(trifluoromethyl)-1,6-dihydropyrimidin-2-yl]benzyl}-1-[5-(trifluoromethyl)pyridin-2-yl]piperidine-4-carboxamide]"
6,< 1 nM,"Cc1nc(-c2c(C(F)(F)F)ccc(CNC(=O)[C@H]3CC[C@H](OCc4ccc(F)cc4F)CC3)c2F)[nH]c(=O)c1F [Example 126, trans-4-[(2,4-difluorobenzyl)oxy]-N-[2-fluoro-3-(5-fluoro-4-methyl-6-oxo-1,6-dihydropyrimidin-2-yl)-4-(trifluoromethyl)benzyl]cyclohexane-1-carboxamide]"
7,0.61 nM,"O=C(NCc1ccc(C(F)(F)F)c(-c2nc(C(F)F)cc(=O)[nH]2)c1F)C1CCN(c2ccc(OC(F)(F)F)cc2)CC1 [Example 85, N-{3-[4-(difluoromethyl)-6-oxo-1,6-dihydropyrimidin-2-yl]-2-fluoro-4-(trifluoromethyl)benzyl}-1-[4-(trifluoromethoxy)phenyl]piperidine-4-carboxamide]"
8,37 nM,"O=C(NCc1ccc(C(F)(F)F)c(-c2nc(C(F)(F)F)cc(=O)[nH]2)c1F)C1CCN(c2ccc3nccn3n2)CC1 [Example 1, N-{2-fluoro-3-[6-oxo-4-(trifluoromethyl)-1,6-dihydropyrimidin-2-yl]-4-(trifluoromethyl)benzyl}-1-(imidazo[1,2-b]pyridazin-6-yl)piperidine-4-carboxamide]"

# Same assay, conditions: microsomes of COS-1 cells transfected with human mPGES-1 cDNA; PGH2 1 μM; 4° C., 4 minutes; PGE2 by EIA; read-out: h mPGES1 IC50
row,SMILES,IC50
1,"O=C(NCc1ccc(C(F)(F)F)c(-c2nc(C(F)(F)F)cc(=O)[nH]2)c1F)c1ccccc1C(F)(F)F [Example 273, N-{2-fluoro-3-[6-oxo-4-(trifluoromethyl)-1,6-dihydropyrimidin-2-yl]-4-(trifluoromethyl)benzyl}-2-(trifluoromethyl)benzamide]",8.4 nM
2,"O=c1cc(C(F)(F)F)nc(-c2c(C(F)(F)F)ccc(CNC(=O)[C@H]3C[C@@H](OCc4cccc(C(F)(F)F)c4)C3)c2F)[nH]1 [Example 145, cis-N-{2-fluoro-3-[6-oxo-4-(trifluoromethyl)-1,6-dihydropyrimidin-2-yl]-4-(trifluoromethyl)benzyl}-3-{[3-(trifluoromethyl)benzyl]oxy}cyclobutane-1-carboxamide]",98 nM
3,"O=C(Cc1ccc(C(F)(F)F)cc1)NCc1ccc(C(F)(F)F)c(-c2nc(C(F)(F)F)cc(=O)[nH]2)c1F [Example 283, N-{2-fluoro-3-[6-oxo-4-(trifluoromethyl)-1,6-dihydropyrimidin-2-yl]-4-(trifluoromethyl)benzyl}-2-[4-(trifluoromethyl)phenyl]acetamide]",1.5 nM
4,"CCc1cc(=O)[nH]c(-c2c(C(F)(F)F)ccc(CNC(=O)[C@H]3C[C@H](OCc4cc(F)cc(Cl)c4)C3)c2F)n1 [Example 211, trans-3-[(3-chloro-5-fluorobenzyl)oxy]-N-[3-(4-ethyl-6-oxo-1,6-dihydropyrimidin-2-yl)-2-fluoro-4-(trifluoromethyl)benzyl]cyclobutane-1-carboxamide]",9.3 nM
5,"CCc1nc(-c2c(C(F)(F)F)ccc(CNC(=O)[C@H]3C[C@H](OCc4ccc(Cl)cc4F)C3)c2F)[nH]c(=O)c1F [Example 236, trans-3-[(4-chloro-2-fluorobenzyl)oxy]-N-[3-(4-ethyl-5-fluoro-6-oxo-1,6-dihydropyrimidin-2-yl)-2-fluoro-4-(trifluoromethyl)benzyl]cyclobutane-1-carboxamide]",< 1 nM
6,"Cc1cc(=O)[nH]c(-c2c(C(F)(F)F)ccc(CNC(=O)[C@H]3C[C@H](OCc4ccccc4Cl)C3)c2F)n1 [Example 178, trans-3-[(2-chlorobenzyl)oxy]-N-[2-fluoro-3-(4-methyl-6-oxo-1,6-dihydropyrimidin-2-yl)-4-(trifluoromethyl)benzyl]cyclobutane-1-carboxamide]",< 1 nM
7,"O=c1cc(-c2ccc(C(F)(F)F)cn2)nc(-c2c(C(F)(F)F)ccc(CNS(=O)(=O)c3ccccc3C(F)(F)F)c2F)[nH]1 [Example 269, N-(2-fluoro-3-{6-oxo-4-[5-(trifluoromethyl)pyridin-2-yl]-1,6-dihydropyrimidin-2-yl}-4-(trifluoromethyl)benzyl)-2-(trifluoromethyl)benzenesulfonamide]",7.6 nM

# Other lines, results leading:
row,IC50,SMILES
1,< 1 nM,"O=c1cc(C(F)(F)F)nc(-c2c(C(F)(F)F)ccc(CNC(=O)[C@H]3C[C@H](OCc4ccc(F)c(F)c4)C3)c2F)[nH]1 [Example 150, trans-3-[(3,4-difluorobenzyl)oxy]-N-{2-fluoro-3-[6-oxo-4-(trifluoromethyl)-1,6-dihydropyrimidin-2-yl]-4-(trifluoromethyl)benzyl}cyclobutane-1-carboxamide]"
2,< 1 nM,"O=c1cc(C(F)(F)F)nc(-c2c(C(F)(F)F)ccc(CNC(=O)[C@H]3C[C@H](OCc4cccc(F)c4F)C3)c2F)[nH]1 [Example 153, trans-3-[(2,3-difluorobenzyl)oxy]-N-{2-fluoro-3-[6-oxo-4-(trifluoromethyl)-1,6-dihydropyrimidin-2-yl]-4-(trifluoromethyl)benzyl}cyclobutane-1-carboxamide]"
3,< 1 nM,"O=c1cc(C(F)F)nc(-c2c(C(F)(F)F)ccc(CNC(=O)[C@H]3C[C@H](OCc4cccc(Cl)c4F)C3)c2F)[nH]1 [Example 174, trans-3-[(3-chloro-2-fluorobenzyl)oxy]-N-{3-[4-(difluoromethyl)-6-oxo-1,6-dihydropyrimidin-2-yl]-2-fluoro-4-(trifluoromethyl)benzyl}cyclobutane-1-carboxamide]"
4,< 1 nM,"O=c1cc(C(F)(F)F)nc(-c2c(C(F)(F)F)ccc(CNC(=O)[C@H]3C[C@H](Oc4ccc(C(F)(F)F)cn4)C3)c2F)[nH]1 [Example 249, trans-N-{2-fluoro-3-[6-oxo-4-(trifluoromethyl)-1,6-dihydropyrimidin-2-yl]-4-(trifluoromethyl)benzyl}-3-{[5-(trifluoromethyl)pyridin-2-yl]oxy}cyclobutane-1-carboxamide]"
